Experimental data as given in US6864086B2, “Nitric oxide-scavenging system for culturing oocytes, embryos, or other cells” (Board of Supervisors of Louisiana State University and …, priority 1998, dated 2005).
“And” between values parts separate entries of the source, which are not always exact repeats. Equal entries are not always repeated.

System: bovine IVF-oocytes
Test: Example 8: Hb (1 μg/ml) in mBECM co-culture, oocytes collected in different months, pre-hatching development
Format: cell-based
Set-up: key to Least square mean ± SE of embryos developed to 8-cell / Least square mean ± SE of embryos developed to 16-cell / Least square mean ± SE of embryos developed to Morula / Least square mean ± SE of embryos developed to Blastocyst / Least square mean ± SE of embryos developed to 2-cell: mean of per-embryo scores: 1 = developed to stage, 0 = not developed
Procedure: The basic medium used for maturation of oocytes was tissue culture medium (TCM)-199 with Earle's salts, buffered with 25 mM HEPES (Gibco BRL, Grand Island, N.Y.) and supplemented with 10% (v/v) heat-inactivated fetal bovine serum (FBS; Hyclone Laboratories, Logan, Utah), 1 μg/ml estradiol-17β (NOBL Laboratories, Sioux Center, Iowa), 3 μg/ml bovine FSH (NOBL Laboratories), 6 μg/ml bovine LH (NOBL Laboratories), and 25 μg/ml gentamycin (Sigma Chemical Co., St. Louis, Mo.). The basic medium used for treatment of spermatozoa and fertilization of oocytes was a modified Tyrode's medium (J. Parrish et al., Capacitation of bovine sperm by heparin. Biol. Reprod. 38:1171-1180 (1988)), supplemented with 0.25 mM sodium pyruvate (Gibco BRL), 6 mg/ml fatty acid (FA)-free BSA (No. A-6003, Sigma), 15 μg/ml calcium heparin from porcine intestinal mucosa (183 USP/mg; H-8398, Sigma), and 25 μg/ml gentamycin. Modified bovine embryo culture medium (mBECM) containing 10 μM β-mercaptoethanol was used for culture of embryos, as described in J. Lim et al., “Roles of growth factors in the development of bovine embryos fertilized in vitro and cultured singly in a defined medium,” Reprod. Fertil. Dev., 8:1199-1205 (1996). mBECM supplemented with 10% (v/v) FBS was used for co-culturing inseminated oocytes with CGC. Osmolarity of the medium was maintained within the range of 265-290 mOsm.
All cumulus-oocyte complexes (COC) were collected in Madison, Wis. (BOMED, Inc.) and were shipped in 2 ml of maturation medium in a battery powered incubator via overnight express mail service. Oocytes matured during transit and arrived within 24 h after exposure to maturation medium, pre-equilibrated at 39° C. in 5% CO2 in air. At 22 to 24 h after exposure to the medium, the COCs were inseminated in vitro as described in J. Lim et al., “Intracytoplasmic glutathione concentration and the role of β-mercaptoethanol in preimplantation development of bovine embryos,” Theriogenology, 46:429-439 (1996). At 18 h post-insemination, COCs were cultured in groups (28-40 embryos) in a 4-well multidish (Nunc, Roskilde, Denmark) containing 0.8-ml of mBECM. Embryos were dislodged from CGC at 36 to 48 h post-insemination.
In Example 8, bovine follicular oocytes were collected from November 1996 to May 1997, and matured and fertilized in culture. (Oocytes collected during summer and early fall were not used in this study, to avoid interference from environmental heat stress on in vitro survival of embryos.) IVF embryos were collected at 18 h post-insemination and cultured in mBECM supplemented with FBS (10%, v/v), to which 0 or 1 μg/ml Hb (from bovine, mainly methemoglobin, H-2500, Sigma Co.) was added. Development of embryos to the 2-cell, 8-cell, 16-cell, morula, and blastocyst stages was monitored 48, 60, 120, 144 and 192 h post-insemination, respectively. As a supplemental experiment, some blastocysts in each treatment (20 or 28) were randomly collected, and the cell number of the blastocysts was counted by use of Hoechst stain 33342 and a fluorescent microscope (Diaphod, Nikkon, Tokyo, Japan). This experiment used 1675 embryos in 25 replicates, with IVF embryos randomly allotted among treatments.
Embryos developed to the 2-cell, 8-cell, 16-cell, morula, and blastocyst stages at the pertinent observation times were individually scored ‘1’ (developed). Embryos that had not developed to these stages at the same times were scored ‘0’ (non-developed). Sums of the scores at each stage of development were evaluated by analysis of variance using a general linear model (PROC-GLM) in the SAS statistical programming package (1991). In Example 8, the combined effects of Hb addition and month of oocyte collection were first examined in a 2×7 factorial arrangement. Overall differences in embryonic development in Hb-free and Hb-containing culture systems were further evaluated. […] Differences were regarded as statistically significant where P values were less than 0.05.

**Q.** How did the “Least square mean ± SE of embryos developed to 2-cell” value (from here on “Least square mean ± SE … to 2-cell”) (April) turn out when hemoglobin [Hb] was run?
**A.** Its value is 0.70 ± 0.03.

**Q.** And the “Least square mean ± SE of embryos developed to 8-cell” value (“Least square mean ± SE … to 8-cell” for short) (April)?
**A.** Its value is 0.48 ± 0.03.

**Q.** What about the “Least square mean ± SE of embryos developed to 16-cell” value (“Least square mean ± SE … to 16-cell” for short) (April) of the same substance?
**A.** The value was 0.39 ± 0.03.

**Q.** And the “Least square mean ± SE of embryos developed to Blastocyst” value (from here on “Least square mean ± SE … to Blastocyst”) (April)?
**A.** Its value is 0.25 ± 0.03.

**Q.** What about the “Least square mean ± SE of embryos developed to Morula” value (“Least square mean ± SE … to Morula” for short) (April) of the same substance?
**A.** Its value is 0.32 ± 0.03.

**Q.** And the “Least square mean ± SE … to 2-cell” value (December)?
**A.** Its value is 0.79 ± 0.05.

**Q.** And the “Least square mean ± SE … to 8-cell” value (December)?
**A.** The value was 0.59 ± 0.05.

**Q.** And the “Least square mean ± SE … to 16-cell” value (December)?
**A.** The value was 0.53 ± 0.05.

**Q.** And the “Least square mean ± SE … to Blastocyst” value (December)?
**A.** Its value is 0.36 ± 0.05.

**Q.** And the “Least square mean ± SE … to Morula” value (December)?
**A.** Its value is 0.41 ± 0.05.

**Q.** What about the “Least square mean ± SE … to 2-cell” value (February) of the same substance?
**A.** The value was 0.77 ± 0.04.

**Q.** What about the “Least square mean ± SE … to 8-cell” value (February) of the same substance?
**A.** Its value is 0.53 ± 0.04.

**Q.** And the “Least square mean ± SE … to 16-cell” value (February)?
**A.** Its value is 0.44 ± 0.04.

**Q.** What about the “Least square mean ± SE … to Blastocyst” value (February) of the same substance?
**A.** Its value is 0.35 ± 0.04.

**Q.** What about the “Least square mean ± SE … to Morula” value (February) of the same substance?
**A.** Its value is 0.40 ± 0.04.

**Q.** And the “Least square mean ± SE … to 2-cell” value (January)?
**A.** The value was 0.70 ± 0.04.

**Q.** What about the “Least square mean ± SE … to 8-cell” value (January) of the same substance?
**A.** The value was 0.45 ± 0.04.

**Q.** And the “Least square mean ± SE … to 16-cell” value (January)?
**A.** Its value is 0.42 ± 0.04.

**Q.** What about the “Least square mean ± SE … to Blastocyst” value (January) of the same substance?
**A.** The value was 0.28 ± 0.04.

**Q.** What about the “Least square mean ± SE … to Morula” value (January) of the same substance?
**A.** The value was 0.32 ± 0.04.

**Q.** And the “Least square mean ± SE … to 2-cell” value (March)?
**A.** The value was 0.58 ± 0.05.

**Q.** And the “Least square mean ± SE … to 8-cell” value (March)?
**A.** The value was 0.40 ± 0.06.

**Q.** What about the “Least square mean ± SE … to 16-cell” value (March) of the same substance?
**A.** Its value is 0.31 ± 0.06.

**Q.** And the “Least square mean ± SE … to Blastocyst” value (March)?
**A.** Its value is 0.20 ± 0.05.

**Q.** What about the “Least square mean ± SE … to Morula” value (March) of the same substance?
**A.** The value was 0.23 ± 0.06.

**Q.** And the “Least square mean ± SE … to 2-cell” value (May)?
**A.** Its value is 0.70 ± 0.05.

**Q.** And the “Least square mean ± SE … to 8-cell” value (May)?
**A.** Its value is 0.60 ± 0.05.

**Q.** And the “Least square mean ± SE … to 16-cell” value (May)?
**A.** The value was 0.49 ± 0.05.

**Q.** What about the “Least square mean ± SE … to Blastocyst” value (May) of the same substance?
**A.** The value was 0.40 ± 0.05.

**Q.** And the “Least square mean ± SE … to Morula” value (May)?
**A.** The value was 0.44 ± 0.05.

**Q.** What about the “Least square mean ± SE … to 2-cell” value (November) of the same substance?
**A.** The value was 0.89 ± 0.07.

**Q.** And the “Least square mean ± SE … to 8-cell” value (November)?
**A.** Its value is 0.71 ± 0.08.

**Q.** And the “Least square mean ± SE … to 16-cell” value (November)?
**A.** The value was 0.60 ± 0.08.

**Q.** What about the “Least square mean ± SE … to Blastocyst” value (November) of the same substance?
**A.** Its value is 0.34 ± 0.07.

**Q.** And the “Least square mean ± SE … to Morula” value (November)?
**A.** The value was 0.57 ± 0.08.

**Q.** What about the “formation of blastocysts (least square mean), range over months” value (November-May, control 0.17-0.32) of the same substance?
**A.** The value was 0.20-0.4.

**Q.** What about the “formation of morulae (least square mean), range over months” value (November-May, control 0.2-0.37) of the same substance?
**A.** Its value is 0.23-0.57.

**Q.** And the “Number of embryos developed to 2-cell” value (all months overall, 831 embryos cultured, 48 h)?
**A.** Its value is 601.

**Q.** What about the “Number of embryos developed to 8-cell” value (all months overall, 831 embryos cultured, 60 h) of the same substance?
**A.** The value was 427.

**Q.** What about the “Number of embryos developed to 16-cell” value (all months overall, 831 embryos cultured, 120 h) of the same substance?
**A.** The value was 358.

**Q.** And the “Number of embryos developed to Morula” value (all months overall, 831 embryos cultured, 144 h)?
**A.** The value was 300.

**Q.** And the “Number of embryos developed to Blastocyst” value (all months overall, 831 embryos cultured, 192 h)?
**A.** The value was 251.

**Q.** What about the “Least square mean ± SE … to 2-cell” value (all months overall, 48 h) of the same substance?
**A.** Its value is 0.73 ± 0.02.

**Q.** What about the “Least square mean ± SE … to 8-cell” value (all months overall, 60 h) of the same substance?
**A.** Its value is 0.54 and 0.54 ± 0.02.

**Q.** What about the “Least square mean ± SE … to 16-cell” value (all months overall, 120 h) of the same substance?
**A.** Its value is 0.45 and 0.45 ± 0.02.

**Q.** And the “Least square mean ± SE … to Morula” value (all months overall, 144 h)?
**A.** Its value is 0.39 and 0.39 ± 0.02.

**Q.** And the “Least square mean ± SE … to Blastocyst” value (all months overall, 192 h)?
**A.** The value was 0.31 and 0.31±0.02.

**Q.** What about the “effect on development to the 2-cell stage” value (all months overall, P>0.73) of the same substance?
**A.** Its value is “no significant effect”.
